Activity calls are given as the source filed them. No cut-off for these calls is given here.
Key:
A2058 [1] = assay: Growth inhibition of human A2058 cells at 10 uM after 72 hrs by MTT assay; format: functional
A2058 [2] = assay: Antiproliferative activity against human A2058 cells assessed as inhibition of cell growth after 72 hrs by MTT assay; format: functional, cell-based; settings: A2058, 72 h

Compound | growth inhibition (GI) (A2058 [1]) | inhibition of growth at 10 µM (A2058 [1]; A2058, 72 h, read-out: GI) [%] | IC50 (A2058 [2]) [µM]
c1ccc2oc(-n3cnc4ccccc43)nc2c1 | Active | – | –
c1ccc2oc(-n3ccnc3)nc2c1 | – | 84.3 | 7.1
c1ccc2sc(-n3cnc4ccccc43)nc2c1 | Active | – | –
c1ccc2sc(-n3cnc4ccccc43)cc2c1 | Active | – | –
c1ccc2oc(-n3cnc4ccccc43)cc2c1 | Active | – | –

From ChEMBL document CHEMBL3286107, “Synthesis of C,N'-linked bis-heterocycles using a deprotometalation-iodination-N-arylation sequence and evaluation of their antiproliferative activity in melanoma cells” (Bioorg Med Chem, 2014)
